The assay has as its target T1, TlCel5A (Evansstolkia leycettana, UniProt A0A3G5ECP2).
T1 construct: mature protein, 18-residue signal peptide removed (precursor 409 residues); catalytic domain, linker, C-terminal CBM; pPIC9, secreted from Pichia pastoris GS115, purified
Description: HPAEC analysis of hydrolysis products. It is filed as biochemical. To be noted: 60 °C; 200 μg substrate in 1 mL, 0.05 U enzyme.

The source of these data is PMC6857856, “Characterization of two thermophilic cellulases from Talaromyces leycettanus JCM12802 and their synergistic action on cellulose hydrolysis” (PLoS ONE, 2019).

T1 sequence (A0A3G5ECP2 19-409): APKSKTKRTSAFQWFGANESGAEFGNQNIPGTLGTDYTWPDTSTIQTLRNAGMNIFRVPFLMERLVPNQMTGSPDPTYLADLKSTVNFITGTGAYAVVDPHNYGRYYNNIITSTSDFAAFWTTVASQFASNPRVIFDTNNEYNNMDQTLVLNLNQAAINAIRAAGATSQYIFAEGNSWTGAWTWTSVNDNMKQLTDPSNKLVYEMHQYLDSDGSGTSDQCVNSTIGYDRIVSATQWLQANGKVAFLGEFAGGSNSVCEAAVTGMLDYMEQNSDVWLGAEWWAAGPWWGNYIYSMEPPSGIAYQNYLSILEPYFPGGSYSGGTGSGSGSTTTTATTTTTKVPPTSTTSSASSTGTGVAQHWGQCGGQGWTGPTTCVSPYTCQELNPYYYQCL

For `OC[C@H]1O[C@@H](O[C@H]2[C@H](O)[C@@H](O)[C@H](O[C@H]3[C@H](O)[C@@H](O)[C@H](O[C@H]4[C@H](O)[C@@H](O)[C@H](O[C@H]5[C@H](O)[C@@H](O)[C@H](O[C@H]6[C@H](O)[C@@H](O)C(O)O[C@@H]6CO)O[C@@H]5CO)O[C@@H]4CO)O[C@@H]3CO)O[C@@H]2CO)[C@H](O)[C@@H](O)[C@@H]1O` (some centres unmarked) [cellohexaose], the “HPAEC analysis of hydrolysis products” value was “cellohexaose into cellobiose, cellotriose, cellotetraose and cellopentaose”.

For the compound `OC[C@H]1O[C@@H](O[C@H]2[C@H](O)[C@@H](O)[C@H](O[C@H]3[C@H](O)[C@@H](O)[C@H](O[C@H]4[C@H](O)[C@@H](O)[C@H](O[C@H]5[C@H](O)[C@@H](O)C(O)O[C@@H]5CO)O[C@@H]4CO)O[C@@H]3CO)O[C@@H]2CO)[C@H](O)[C@@H](O)[C@@H]1O` (some centres unmarked) [cellopentaose], the “HPAEC analysis of hydrolysis products” value was “cleaved cellopentaose into mainly cellobiose and cellotriose and low amounts of cellotetraose”.
